Tests used:
[1] = Metabolic stability in human liver microsomes; assay type: in vitro ADME
Procedure: The objective of this study was to evaluate the metabolic stability of LSL33 and its depletion rate in the presence of HLM. This was achieved by incubating LSL33 with microsomes and monitoring parent disappearance using LC/MSMS (Table S6).
Metabolic stability of LSL33 in human liver microsomes
The reaction was initiated by adding HLM (1 mg/mL) to an equal volume of buffer solution containing the test compound and cofactors at the proper concentrations. Reactions without NADPH were also incubated to rule out non-NADPH metabolism or chemical instability in the […]
incubation course. All reactions were terminated using 60 µL of ice-cold acetonitrile at 0, 5, 15, […]
30, 45, and 60 min. […] All experiments were conducted in triplicate. Samples were monitored to parent compound disappearance by LC-MS in MRM mode according to a quantitation method for each compound.
LSL33 was dissolved in DMSO at 0.5 mg/mL. Assay conditions, total incubation volume 400 µL, protein concentration 1 mg/mL, NADPH, 1.3 mM. Preparation of reagents: Test compound, the final concentration in the assay. […]
prepared by dissolving appropriate amount of N ADPH in 100 mM potassium phosphate buffer. […]
from Sigma-Aldrich, Germany. The equipment needed for the study was Beckman Coulter […]
injector, Api4000 Mass Spectrometer.
Bio-Analysis: Samples were monitored for parent compound disappearance by LC-MS in MRM mode according to a previously verified quantitation method for each compound.
Data Analysis: The peak area of analyte was used to calculate the percentage of remaining compound at each incubation time (Table S7). The natural logarithm of the percentage of reamining LSL33 was plotted versus incubation time to calculate the half -life using the following […]
time) see Table S8 and Figure S11 . Intrinsic clearance was determined by the following equation:
CLint H = Ln 2/t1/2 (min) x volume incubation (mL)/microsomal protein (mg) x 45 (MPPGL) 1500 g human liver/ 70 Kg human body weight. Units for CL int are usually expressed as mL/min/mg microsomal protein (table S8), MPPGL = referred to as mg microsomal protein per gram liver.
The categories classification
Table S6. Summary of LC-MS conditions
Ionization Mode Electrospray positive
Sample matrix Microsomes+ NADPH + buffer […]
Mobile phase [Water: Acetonitrile :0.1% Formic Acid]

[2] = system: Ngf, Bdnf, Tnf-a, Il-6 gene expression; assay: Real-time PCR gene expression in hippocampus of 5XFAD mice; assay type: in vivo, mouse; conditions: 2 mg/Kg
Procedure: Four-month-old female and male Wt and 5XFAD mice (n = 32) were used to carry out cognitive and molecular analyses. […] The animals had free access to food and water and were kept under standard temperature conditions (22 ± 2 °C) and 12 h/12 h light/dark cycles (300 lx/0 lx). […] After 4 weeks of treatment, cognitive tests, including short- and long-term memory and OLT, were performed to study the effects of treatment on learning and memory. Weight and water consumption were controlled each week, and the LSL33 concentration was adjusted accordingly to reach the optimal dose until euthanasia.
Three days after cognitive tests, mice were euthanized for protein extraction and RNA and DNA isolation. After euthanasia, the brains were immediately removed from the skulls, and the hippocampi were dissected, frozen, and maintained at −80 °C.
Total RNA isolation was carried out using TRIzol® reagent according to the manufacturer’s instructions. The yield, purity, and quality of RNA were determined spectrophotometrically with a NanoDrop™ ND-1000 apparatus (Thermo Scientific, Waltham, MA, USA) and an Agilent 2100B Bioanalyzer (Agilent Technologies, Santa Clara, CA, USA). RNA samples with 260/280 ratios and RNA integrity numbers (RINs) higher than 1.9 and 7.5, respectively, were selected. A reverse transcription-polymerase chain reaction (RT-PCR) was performed. Briefly, 2 μg of messenger RNA (mRNA) was reverse-transcribed using a high-capacity cDNA reverse transcription kit (Applied Biosystems, Foster City, CA, USA).
SYBR® Green real-time PCR was performed on a StepOnePlus Detection System (Applied Biosystems) with SYBR® Green PCR master mix (Applied Biosystems). Each reaction mixture contained 6.75 μL of complementary DNA (cDNA) (with a concentration of 2 μg), 0.75 μL of each primer (with a concentration of 100 nM), and 6.75 μL of SYBR® Green PCR master mix (2×).
The data were analyzed utilizing the comparative cycle threshold (Ct) (ΔΔCt) method, in which the levels of a housekeeping gene are used to normalize differences in sample loading and preparation. Normalization of expression levels was performed with β-actin for SYBR® Green-based real-time PCR. Each sample was analyzed in duplicate, and the results represent the n-fold differences in the transcript levels among different groups.
Figure 7 Results from an in vivo study of synaptic plasticity markers. (A) Representative protein levels and quantification by WB for PSD95. (B,C) Representative gene expression for Ngf and Bdnf Gene expression levels were determined by real-time PCR. The data correspond to the mean ± SEM (n = 3–5 mice per group). […]
Figure 8 Results from an in vivo study Neuroinflammatory markers. Representative gene expression for Tnf-a and Il-6 Gene expression levels were determined by real-time PCR. […]

[3] = 5XFAD hippocampus, vs 5XFAD Control

SMILES: Cl.c1ccc2sc(-c3ncc[nH]3)cc2c1 [LSL33, 2-(Benzo[b]thiophene-2-yl)-1H-imidazole hydrochloride]
- hepatic clearance category ([1]; HLM intrinsic clearance bands): high
- % Compound Remaining ([1]; HLM, minus NADPH, 0 min): 100.0 ± 10.2%
- % Compound Remaining ([1]; HLM, minus NADPH, 60 min): 96.6 ± 9.0%
- % Compound Remaining ([1]; HLM, plus NADPH, 0 min): 100.0±9.0%
- % Compound Remaining ([1]; HLM, plus NADPH, 5 min): 4.6 ± 0.4%
- % Compound Remaining ([1]; HLM, plus NADPH, 15 min): 0.1 ± 0.1%
- % Compound Remaining ([1]; HLM, plus NADPH, 30 min): 0.2 ± 0.1%
- % Compound Remaining ([1]; HLM, plus NADPH, 45 min): 1.3 ± 0.2%
- % Compound Remaining ([1]; HLM, plus NADPH, 60 min): 0.2 ± 0.3%
- half-life ([1]; human, human liver microsomes, HLM): 1.58 min
- Il-6 gene expression [2, 3]: clear tendency to reduce both cytokines
- Ngf gene expression [2, 3]: significant increase in Ngf gene expression
- Tnf-a gene expression [2, 3]: clear tendency to reduce both cytokines
- Bdnf gene expression ([2]; both treated groups (Wt and 5XFAD)): clear tendency to increase

— publication PMC10610545, “Preclinical Evaluation of an Imidazole-Linked Heterocycle for Alzheimer’s Disease” (Pharmaceutics, 2023)
